Test results from patent US20220125983A1, “MALODOR COUNTERACTING COMPOSITION AND AGENT AND THE USE THEREOF” (CHEMCOM S.A., priority 2019, published 2022).

Assays:
[1] = system: perception of the earthy olfactory note; experiment: Sensory test: expert panel rating of odor intensity of earthy compounds without and with nefopam (Tedlar bags); type: in vivo, human; conditions: for Odor intensity without Nefopam, note A: earthy: scale 0 (no odor) to 5 (saturating odor), resolution 0.5, panel of five assessors; for Odor intensity of Geosmin with nefopam enantiomer as blocker, note A: earthy / Odor intensity of Geosmin with nefopam enantiomer as blocker, note B: camphoreous: Geosmin + enantiomer free base
Description: The composition comprising nefopam was prepared by diluting racemic nefopam in its free base form in ethanol at a concentration of 107 mg/ml The test comprised in a first step, microinjecting the earthy compound, nefopam or earthy compound+nefopam in 20 L TedlarTM bags specially conceived for gas sampling, previously loaded with a known volume of pure air (from oil free compressor with additional charcoal filters). The earthy compounds were solubilized in ethanol at a suitable concentration (see table 2) and injected in the 20 L […] bag. The final concentration in the bag varied between 7 mg/m^3' to 383 mg/m^3, (table 2), depending on the odor strength of the compound while the concentration of nefopam in the bags was fixed at 54 mg/m^3. [table] The odor presentation device comprised a cylinder filled with clean air. The bag was inserted in the cylinder and connected to a sampling installation in the cylinder by means of a valve. By controlled injection of clean air into the cylinder, the interior pressure was raised and the sampling air was pressed in a controlled manner out of the sample container through the opened valve. This sampling air was transferred to the nose of the corresponding sensory odor panel member by means of a funnel. By this means, each sensory odor panel member received an identical sample with a standardized volume flow and a constant provision time. The outlet flow rate was between 10-20 L/min (in order to avoid any mixing with ambient air before reaching the nose). The expert panel of five assessors entered the room 15 minutes before starting the test. The basic standard test was a rating in intensity and the use of the closest chemical descriptors according to the following order of presentation: 1. earthy compound 2. Mix: earthy compound (at same concentrations as for 1)+Nefopam. Each assessor could smell for few seconds. A pause of minimum 1 minute was considered between presentations. The individual rating was done with a resolution of 0.5 on a scale ranging from 0 (no odor) to 5 (saturating odor). Both enantiomers of nefopam, (+)-nefopam and (-)-nefopam in their free base from obtained as described in examples 1 and 2, respectively, were assessed separately as blockers of the perception of the earthy note of geosmin, using the same procedure as described in example 3.

[2] = system: human nose; conditions: as low as; cited from earlier work
[3] = earthy compound alone in bag at Table 2 concentration
[4] = earthy compound alone in bag at Table 2 concentration, scale 0 to 5
[5] = 2-ethylfenchol 188 mg/m^3 + racemic nefopam free base 54 mg/m^3 in bag, scale 0 to 5
[6] = 2-methylisoborneol 150 mg/m^3 + racemic nefopam free base 54 mg/m^3 in bag, scale 0 to 5
[7] = Ambrinol R 29 mg/m^3 + racemic nefopam free base 54 mg/m^3 in bag, scale 0 to 5
[8] = Ambrinol S 26 mg/m^3 + racemic nefopam free base 54 mg/m^3 in bag, scale 0 to 5
[9] = Ambrinol racemic 25 mg/m^3 + racemic nefopam free base 54 mg/m^3 in bag, scale 0 to 5
[10] = Geosmin 19 mg/m^3 + racemic nefopam free base 54 mg/m^3 in bag, scale 0 to 5
[11] = Huminol 11 mg/m^3 + racemic nefopam free base 54 mg/m^3 in bag, scale 0 to 5
[12] = Methyl geosmin 7 mg/m^3 + racemic nefopam free base 54 mg/m^3 in bag, scale 0 to 5
[13] = Patchouli oil 383 mg/m^3 + racemic nefopam free base 54 mg/m^3 in bag, scale 0 to 5
[14] = earthy compounds of Table 3, nefopam 54 mg/m^3
[15] = Example 4, same procedure as example 3, scale 0 to 5
[16] = Example 4, Geosmin alone, same procedure as example 3, scale 0 to 5

In the case of `CC1(O)CCC2C(=CCCC2(C)C)C1` (racemic) [Ambrinol racemic, 2,5,5-trimethyl-1,3,4,4a,6,7-hexahydronaphthalen-2-ol], the “Odor intensity without Nefopam, note A: earthy” value [1, 3] was 1.5 and the “Odor intensity without Nefopam, note B: α-pinene” value [1, 4] was 2.5.

For `CN1CCOC(c2ccccc2)c2ccccc2C1` (racemic) [Nefopam, (RS)-5-methyl-1-phenyl-1,3,4,6-tetrahydro-2,5-benzoxazocine], the “Odor intensity with Nefopam, 2-ethylfenchol note A: earthy” value [1, 5] was 0, the “Odor intensity with Nefopam, 2-ethylfenchol note B: camphoreous” value [1, 5] was 3 and the “Odor intensity with Nefopam, 2-methylisoborneol note A: earthy” value [1, 6] was 0. For the same compound, the “Odor intensity with Nefopam, 2-methylisoborneol note B: camphoreous” value [1, 6] was 2.5, the “Odor intensity with Nefopam, Ambrinol R note A: earthy” value [1, 7] was 0.5 and the “Odor intensity with Nefopam, Ambrinol R note B: scatole” value [1, 7] was 3.5. The “Odor intensity with Nefopam, Ambrinol S note A: earthy” value [1, 8] was 0.5, the “Odor intensity with Nefopam, Ambrinol S note B: vetivert” value [1, 8] was 2 and the “Odor intensity with Nefopam, Ambrinol racemic note A: earthy” value [1, 9] was 0. The “Odor intensity with Nefopam, Ambrinol racemic note B: α-pinene” value [1, 9] was 2.5, the “Odor intensity with Nefopam, Geosmin note A: earthy” value [1, 10] was 1 and the “Odor intensity with Nefopam, Geosmin note B: camphoreous” value [1, 10] was 2.5. For the same compound, the “Odor intensity with Nefopam, Huminol note A: earthy” value [1, 11] was 1, the “Odor intensity with Nefopam, Huminol note B: camphoreous” value [1, 11] was 2 and the “Odor intensity with Nefopam, Methyl Geosmin note A: earthy” value [1, 12] was 0.5. For the same compound, the “Odor intensity with Nefopam, Methyl Geosmin note B: α-pinene” value [1, 12] was 1.5, the “Odor intensity with Nefopam, Patchouli Oil note A: earthy” value [1, 13] was 0.5 and the “Odor intensity with Nefopam, Patchouli Oil note B: α-pinene” value [1, 13] was 2.5. For the same compound, the “Intensity of the other olfactory notes associated to the different compounds in the presence of racemic nefopam” value [1, 14] was “not significantly decreased” and the “Typical earthy olfactory note associated with the tested compounds when smelled in the presence of racemic nefopam” value [1, 14] was “strongly reduced”.

With `CCC1(O)C2(C)CCC(C2)C1(C)C` (centres unmarked) [2-ethylfenchol, 6-ethyl-1,5,5-trimethylbicyclo[2.2.1]heptan-6-ol] the “Odor intensity without Nefopam, note A: earthy” value [1, 3] was 3 and the “Odor intensity without Nefopam, note B: camphoreous” value [1, 4] was 3.5.

For `CC1(O)CC2CCC1(C)C2(C)C` (centres unmarked) [2-methylisoborneol, 1,2,7,7-Tetramethylbicyclo[2.2.1]heptan-2-ol], the “Detection threshold (human nose)” value [2] is listed as 25 ng/L, the “Odor intensity without Nefopam, note A: earthy” value [1, 3] is listed as 3 and the “Odor intensity without Nefopam, note B: camphoreous” value [1, 4] is listed as 0.

In the case of `CN1CCO[C@@H](c2ccccc2)c2ccccc2C1` [(+)-Nefopam, (S)-5-methyl-1-phenyl-1,3,4,6-tetrahydro-2,5-benzoxazocine], the “Odor intensity of Geosmin with nefopam enantiomer as blocker, note A: earthy” value [1, 15] was 3 and the “Odor intensity of Geosmin with nefopam enantiomer as blocker, note B: camphoreous” value [1, 15] was 3.

With `CN1CCO[C@H](c2ccccc2)c2ccccc2C1` [(−)-Nefopam, (R)-5-methyl-1-phenyl-1,3,4,6-tetrahydro-2,5-benzoxazocine] the “Odor intensity of Geosmin with nefopam enantiomer as blocker, note A: earthy” value [1, 15] was 0 and the “Odor intensity of Geosmin with nefopam enantiomer as blocker, note B: camphoreous” value [1, 15] was 3.

In the case of `CC1(C)CCC=C2C[C@@](C)(O)CC[C@H]21` [Ambrinol R, (2S, 4aS)-(−)-2,5,5-Trimethyl-1,2,3,4,4a,5,6,7-octahydro-naphthalen-2-ol], the “Odor intensity without Nefopam, note A: earthy” value [1, 3] was 1 and the “Odor intensity without Nefopam, note B: scatole” value [1, 4] was 3.5.

For `CC1(C)CCC=C2C[C@](C)(O)CC[C@@H]21` [Ambrinol S, (2R, 4aR)-(+)-2,5,5-Trimethyl-1,2,3,4,4a,5,6,7-octahydro-naphthalen-2-ol], the “Odor intensity without Nefopam, note A: earthy” value [1, 3] was 2.5 and the “Odor intensity without Nefopam, note B: vetivert” value [1, 4] was 1.5.

For `CC1CCCC2(C)CCCCC12O` (centres unmarked) [Geosmin, 4,8a-dimethyl-1,2,3,4,5,6,7,8-octahydronaphthalen-4a-ol], the “Detection threshold (human nose)” value [2] is listed as 10 ng/L, the “Odor intensity without blocker, note A: earthy” value [1, 16] is listed as 3 and the “Odor intensity without blocker, note B: camphoreous” value [1, 16] is listed as 3. For the same compound, the “Odor intensity without Nefopam, note A: earthy” value [1, 3] was 3 and the “Odor intensity without Nefopam, note B: camphoreous” value [1, 4] was 3.

In the case of `CCC1(O)C2(C)CCCC1(C)CC2` (centres unmarked) [Huminol, 8-ethyl-1,5-dimethylbicyclo[3.2.1]octan-8-ol], the “Odor intensity without Nefopam, note A: earthy” value [1, 3] was 2.5 and the “Odor intensity without Nefopam, note B: camphoreous” value [1, 4] was 2.5.

In the case of `CC1(C)CCCC2(C)CCCCC12O` (centres unmarked) [Methyl Geosmin, 4,4,8a-trimethyl-1,2,3,4,5,6,7,8-octahydronaphthalen-4a-ol], the “Odor intensity without Nefopam, note A: earthy” value [1, 3] was 2.5 and the “Odor intensity without Nefopam, note B: α-pinene” value [1, 4] was 1.5.
